Results as given in article PMC7413254 (Nature Communications, 2020).
Like-named read-outs stand apart in the source and are kept apart here.

Legend:
[1] = target: T1, PfCRT^3D7 (Plasmodium falciparum, UniProt Q8IBZ9); assay: cell-based; type: cell-based; details: PfCRT3D7 oocytes, total [3H]CQ transport, normalised to the oocyte type control
Procedure, shortened: (§1)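 Assay buffer ND96 (10 mM MES, 10 mM Tris-base) held at pH 5.5 to mimic vacuole lumen; uptake measured inward from this acidic medium over 1.5 h at 27.5 °C.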

[2] = system: non-expressing oocytes; assay: cells; type: cell-based, Xenopus laevis; details: non-expressing oocytes, total [3H]CQ transport, normalised to the oocyte type control
Procedure, shortened: as §1

[3] = system: non-expressing oocytes; type: cell-based, Xenopus laevis; details: non-expressing oocytes, total [3H]CQ transport, normalised to the oocyte type control
Procedure, shortened: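 Oocytes (ten per treatment, ≥4 independent frogs/days) were preloaded by injecting VF-6 in 25 nL ND96 at pH 5.0, 5.5, 6.0 or 7.0, or Na^+-free choline buffer, then uptake run 1.5 h, 27.5 °C, ND96 pH 5.5 by default. Internal concentrations assumed ~400 nL oocyte volume.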

[4] = target: T2, PfCRT^Ecu1110 (Plasmodium falciparum, UniProt Q9N623, A220S/I356L/K76T/N326D); assay: [3H]CQ uptake into Xenopus oocytes, cis-inhibition by unlabelled solute; type: cell-based; details: for Uptake of [3H]CQ (% PfCRTEcu1110 control), cis-inhibition / PfCRT-mediated [3H]CQ transport, cis-inhibition (% PfCRTEcu1110 control): PfCRTEcu1110 oocytes; for Uptake of [3H]CQ (% PfCRTEcu1110 control), cis-inhibition: total [3H]CQ transport, normalised to the oocyte type control; for PfCRT-mediated [3H]CQ transport, cis-inhibition (% PfCRTEcu1110 control): background [3H]CQ accumulation subtracted, normalised to oocyte type control
Procedure, shortened: as §1

[5] = target: T3, PfCRT^Dd2 (Plasmodium falciparum, UniProt Q9N623, A220S/I356T/K76T/M74I/N326S/N75E/Q271E/R371I); assay: as above; type: cell-based; details: PfCRTDd2 oocytes, background [3H]CQ accumulation subtracted, normalised to oocyte type control
Procedure, shortened: as §1

[6] = target: T1, PfCRT^3D7; assay: cell-based; type: cell-based; details: for Uptake of [3H]CQ (% PfCRT3D7 control), trans-stimulation / PfCRT-mediated [3H]CQ transport, trans-stimulation (% PfCRT3D7 control): PfCRT3D7 oocytes; for Uptake of [3H]CQ (% PfCRT3D7 control), trans-stimulation: total [3H]CQ transport, normalised to the oocyte type control; for PfCRT-mediated [3H]CQ transport, trans-stimulation (% PfCRT3D7 control): normalised to oocyte type control
Procedure, shortened: (§2)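 Transport measured in Xenopus oocytes expressing the transporters, 1.5 h at 27.5 °C in ND96 pH 5.5 unless noted. For trans-stimulation, VF-6 injected in 25 nL ND96 at pH 5.0–7.0 or Na^+-free (choline) buffer; intracellular levels based on ~400 nL oocyte volume. Ten oocytes per treatment, ≥4 experiments.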

[7] = target: T2, PfCRT^Ecu1110; assay: cell-based; type: cell-based; details: for PfCRT-mediated [3H]CQ transport, trans-stimulation (% PfCRTEcu1110 control): normalised to oocyte type control; for [3H]CQ transport (% PfCRTDd2 control), trans-stimulation, PfCRTEcu1110: PfCRT-mediated component (background subtracted), sheet title says normalised to PfCRTDd2 control, mean ± SEM, SEM
Procedure, shortened: as §2

[8] = target: T4, PfNT1 (Plasmodium falciparum, UniProt Q8IDM6); assay: cell-based; type: cell-based; details: PfNT1 oocytes, total [3H]CQ transport, normalised to the oocyte type control
T4 construct: expressed in transfected cells; host or cells: Xenopus laevis oocytes (stage V-VI), cRNA-injected
Procedure, shortened: as §2

[9] = target: T3, PfCRT^Dd2; assay: cell-based; type: cell-based; details: for Uptake of [3H]CQ (% PfCRTDd2 control), trans-stimulation / PfCRT-mediated [3H]CQ transport, trans-stimulation (% PfCRTDd2 control): PfCRTDd2 oocytes; for Uptake of [3H]CQ (% PfCRTDd2 control), trans-stimulation: total [3H]CQ transport, normalised to the oocyte type control; for PfCRT-mediated [3H]CQ transport, trans-stimulation (% PfCRTDd2 control): normalised to oocyte type control; for [3H]CQ transport (% PfCRTDd2 control), trans-stimulation, PfCRTDd2: PfCRT-mediated component (background subtracted), mean ± SEM, SEM
Procedure, shortened: as §2

[10] = [test solute]i = 45 mM (30 mM for some solutes due to solubility)
[11] = [test solute]i = 5 mM (intracellular)
[12] = [test solute]i = 45 mM (intracellular; 30 mM for some solutes due to solubility)
[13] = [test solute]i = 5 mM (injected)

T1 sequence (Q8IBZ9 59-398): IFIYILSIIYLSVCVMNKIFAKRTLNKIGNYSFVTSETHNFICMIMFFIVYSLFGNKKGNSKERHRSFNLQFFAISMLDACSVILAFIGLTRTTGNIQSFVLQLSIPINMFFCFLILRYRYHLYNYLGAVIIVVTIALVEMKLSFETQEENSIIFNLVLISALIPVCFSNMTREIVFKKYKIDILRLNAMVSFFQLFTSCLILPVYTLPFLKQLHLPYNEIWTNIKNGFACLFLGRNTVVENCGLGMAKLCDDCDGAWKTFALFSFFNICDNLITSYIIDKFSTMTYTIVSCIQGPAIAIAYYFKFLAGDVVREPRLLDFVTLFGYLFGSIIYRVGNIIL
T3 sequence (Q9N623 whole entry A220S/I356T/K76T/M74I/N326S/N75E/Q271E/R371I): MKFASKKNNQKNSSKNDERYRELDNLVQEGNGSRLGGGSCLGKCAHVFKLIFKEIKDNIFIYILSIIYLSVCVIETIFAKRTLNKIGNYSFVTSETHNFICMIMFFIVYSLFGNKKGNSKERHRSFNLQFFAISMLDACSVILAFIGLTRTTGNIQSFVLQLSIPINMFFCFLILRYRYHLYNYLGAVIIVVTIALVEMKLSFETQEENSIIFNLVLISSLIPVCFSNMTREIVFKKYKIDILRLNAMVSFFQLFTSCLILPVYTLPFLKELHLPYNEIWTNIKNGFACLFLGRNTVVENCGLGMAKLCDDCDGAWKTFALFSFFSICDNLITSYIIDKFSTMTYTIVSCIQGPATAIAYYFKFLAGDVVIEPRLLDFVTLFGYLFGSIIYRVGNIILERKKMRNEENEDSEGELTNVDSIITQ
T2 sequence (Q9N623 whole entry A220S/I356L/K76T/N326D): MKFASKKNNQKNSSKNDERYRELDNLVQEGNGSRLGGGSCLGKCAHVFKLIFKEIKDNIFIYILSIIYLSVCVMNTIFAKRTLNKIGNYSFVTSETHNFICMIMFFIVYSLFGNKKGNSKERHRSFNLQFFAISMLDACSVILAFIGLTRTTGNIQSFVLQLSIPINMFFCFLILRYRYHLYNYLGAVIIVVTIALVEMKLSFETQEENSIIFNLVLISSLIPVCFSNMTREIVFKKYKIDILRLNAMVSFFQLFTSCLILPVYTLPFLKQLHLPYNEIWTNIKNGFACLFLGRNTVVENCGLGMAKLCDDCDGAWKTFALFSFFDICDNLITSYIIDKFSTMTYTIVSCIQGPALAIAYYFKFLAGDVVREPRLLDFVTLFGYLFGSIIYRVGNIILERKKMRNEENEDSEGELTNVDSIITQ
T4 sequence (Q8IDM6 whole entry): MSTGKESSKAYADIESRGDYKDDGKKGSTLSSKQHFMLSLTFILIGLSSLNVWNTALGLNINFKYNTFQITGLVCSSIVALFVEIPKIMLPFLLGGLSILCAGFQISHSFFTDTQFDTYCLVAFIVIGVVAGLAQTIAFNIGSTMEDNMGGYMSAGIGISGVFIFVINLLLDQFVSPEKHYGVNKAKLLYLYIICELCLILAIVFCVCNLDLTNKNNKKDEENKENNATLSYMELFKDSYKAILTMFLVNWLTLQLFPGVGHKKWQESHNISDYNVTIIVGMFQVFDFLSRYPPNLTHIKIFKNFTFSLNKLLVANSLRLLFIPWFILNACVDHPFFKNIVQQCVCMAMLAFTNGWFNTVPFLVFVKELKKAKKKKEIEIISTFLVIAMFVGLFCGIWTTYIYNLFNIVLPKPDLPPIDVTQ

Substance: HVDD [HD-4]
- Uptake of [3H]CQ (% PfCRT3D7 control), cis-inhibition ([1]; [test solute] = 0.5 mM): 100 ± 3.8 % PfCRT3D7 control
- Uptake of [3H]CQ (% PfCRT3D7 control), cis-inhibition ([1]; [test solute] = 1 mM): 102 ± 3.7 % PfCRT3D7 control
- Uptake of [3H]CQ (% PfCRT3D7 control), cis-inhibition ([1]; [test solute] = 2 mM): 99 ± 3.6 % PfCRT3D7 control
- Uptake of [3H]CQ (% non-expressing oocyte control), cis-inhibition ([2]; [test solute] = 0.5 mM): 99 ± 5.3 % non-expressing oocyte control
- Uptake of [3H]CQ (% non-expressing oocyte control), cis-inhibition ([2]; [test solute] = 1 mM): 100 ± 5.2 % non-expressing oocyte control
- Uptake of [3H]CQ (% non-expressing oocyte control), cis-inhibition ([2]; [test solute] = 2 mM): 97 ± 5.5 % non-expressing oocyte control
- Uptake of [3H]CQ (% non-expressing oocyte control), trans-stimulation ([3]; [test solute]i = 5 mM): 100 ± 3.6 % non-expressing oocyte control
- Uptake of [3H]CQ (% non-expressing oocyte control), trans-stimulation [3, 10]: 98 ± 3.3 % non-expressing oocyte control
- Uptake of [3H]CQ (% PfCRTEcu1110 control), cis-inhibition ([4]; [test solute] = 0.5 mM): 53 ± 8.3 % PfCRTEcu1110 control
- Uptake of [3H]CQ (% PfCRTEcu1110 control), cis-inhibition ([4]; [test solute] = 1 mM): 44 ± 6.1 % PfCRTEcu1110 control
- Uptake of [3H]CQ (% PfCRTEcu1110 control), cis-inhibition ([4]; [test solute] = 2 mM): 32 ± 4.7 % PfCRTEcu1110 control
- PfCRT-mediated [3H]CQ transport, cis-inhibition (% PfCRTEcu1110 control) ([4]; [test solute] = 0.5 mM): 49 ± 1.4 % PfCRTEcu1110 control
- PfCRT-mediated [3H]CQ transport, cis-inhibition (% PfCRTEcu1110 control) ([4]; [test solute] = 1 mM): 39 ± 3.1 % PfCRTEcu1110 control
- PfCRT-mediated [3H]CQ transport, cis-inhibition (% PfCRTEcu1110 control) ([4]; [test solute] = 2 mM): 28 ± 1.3 % PfCRTEcu1110 control
- [3H]CQ transport (% PfCRTEcu1110 control), cis-inhibition, PfCRTEcu1110 ([4]; cis-inhibition, [test solute] = 2 mM, PfCRT-mediated component (background subtracted), sheet title says normalised to PfCRTDd2 control, mean ± SEM, SEM): 9.0 ± 0.03 % PfCRTEcu1110 control
- PfCRT-mediated [3H]CQ transport, cis-inhibition (% PfCRTDd2 control) ([5]; [test solute] = 0.5 mM): 44 ± 2.3 % PfCRTDd2 control
- PfCRT-mediated [3H]CQ transport, cis-inhibition (% PfCRTDd2 control) ([5]; [test solute] = 1 mM): 31 ± 1.0 % PfCRTDd2 control
- PfCRT-mediated [3H]CQ transport, cis-inhibition (% PfCRTDd2 control) ([5]; [test solute] = 2 mM): 19 ± 0.8 % PfCRTDd2 control
- Uptake of [3H]CQ (% PfCRT3D7 control), trans-stimulation ([6]; [test solute]i = 5 mM): 98 ± 4.1 % PfCRT3D7 control
- Uptake of [3H]CQ (% PfCRT3D7 control), trans-stimulation [6, 10]: 96 ± 1.7 % PfCRT3D7 control
- [3H]CQ transport (% PfCRT3D7 control), trans-stimulation, PfCRT3D7 ([6]; SEM): 0.1 ± 0.01
- PfCRT-mediated [3H]CQ transport, trans-stimulation (% PfCRT3D7 control) [6, 11]: 96 ± 3.3 % PfCRT3D7 control
- PfCRT-mediated [3H]CQ transport, trans-stimulation (% PfCRT3D7 control) [6, 12]: 94 ± 4.9 % PfCRT3D7 control
- Uptake of [3H]CQ (% PfCRTEcu1110 control), trans-stimulation ([7]; PfCRTEcu1110 oocytes, [test solute]i = 45 mM (30 mM for some solutes due to solubility), total [3H]CQ transport, normalised to the oocyte type control): 99 ± 3.2 % PfCRTEcu1110 control
- PfCRT-mediated [3H]CQ transport, trans-stimulation (% PfCRTEcu1110 control) ([7]; [test solute]i = 5 mM (intracellular), PfCRTEcu1110 oocytes): 99 ± 4.9 % PfCRTEcu1110 control
- PfCRT-mediated [3H]CQ transport, trans-stimulation (% PfCRTEcu1110 control) ([7]; [test solute]i = 45 mM (intracellular; 30 mM for some solutes due to solubility), PfCRTEcu1110 oocytes): 97 ± 4.8 % PfCRTEcu1110 control
- [3H]CQ transport (% PfCRTDd2 control), trans-stimulation, PfCRTEcu1110 [7, 13]: 30 ± 1.6 % PfCRTEcu1110 control
- [3H]CQ transport (% PfCRTDd2 control), trans-stimulation, PfCRTEcu1110 [7, 10]: 29 ± 1.5 % PfCRTEcu1110 control
- Uptake of [3H]CQ (% PfNT1 control), trans-stimulation ([8]; [test solute]i = 5 mM): 100 ± 2.7 % PfNT1 control
- Uptake of [3H]CQ (% PfNT1 control), trans-stimulation [8, 10]: 99 ± 2.5 % PfNT1 control
- Uptake of [3H]CQ (% PfCRTDd2 control), trans-stimulation ([9]; [test solute]i = 5 mM): 99 ± 4.3 % PfCRTDd2 control
- Uptake of [3H]CQ (% PfCRTDd2 control), trans-stimulation [9, 10]: 100 ± 2.4 % PfCRTDd2 control
- PfCRT-mediated [3H]CQ transport, trans-stimulation (% PfCRTDd2 control) [9, 11]: 97 ± 2.9 % PfCRTDd2 control
- PfCRT-mediated [3H]CQ transport, trans-stimulation (% PfCRTDd2 control) [9, 12]: 98 ± 3.9 % PfCRTDd2 control
- [3H]CQ transport (% PfCRTDd2 control), trans-stimulation, PfCRTDd2 [9, 13]: 97 ± 2.9 % PfCRTDd2 control
- [3H]CQ transport (% PfCRTDd2 control), trans-stimulation, PfCRTDd2 [9, 10]: 98 ± 3.9 % PfCRTDd2 control
